Tests used:
CDK7/CyclinH/Mat1 = CDK7/CyclinH/Mat1 (Homo sapiens, UniProt P50613); assay: ADP Glo kinase assay, CDK7/CyclinH/Mat1; format: biochemical; conditions: compound at 1 μM, read-out: Residual enzymatic activity (%) at 1 μM, CDK7 H
Description: (§1) Test compounds are used in 1:3 serial dilutions for 10 concentrations (from 10-0.0005 μM) in 0.5% DMSO. […] The kinase reactions are run for optimised time period at room temperature and then the reaction is stopped by adding 5 μL of ADP Glo reagent.

CDK2/CyclinA2 = CDK2/CyclinA2 (Homo sapiens, UniProt P24941); assay: ADP Glo kinase assay, CDK2/CyclinA2; format: biochemical; conditions: for remaining activity at 1 µM: compound at 1 μM, read-out: Residual enzymatic activity (%) at 1 μM, CDK2 A; for Ki: Km ATP, read-out: Enzymatic inhibition, Ki, CDK2 A
Description: as §1

CDK1/CyclinB = CDK1/CyclinB (Homo sapiens, UniProt P06493); assay: ADP Glo kinase assay, CDK1/CyclinB; format: biochemical; conditions: for remaining activity at 1 µM: compound at 1 μM, read-out: Residual enzymatic activity (%) at 1 μM, CDK1 B
Description: as §1

CDK9/CyclinT1 = CDK9/CyclinT1 (Homo sapiens, UniProt P50750); assay: ADP Glo kinase assay, CDK9/CyclinT1; format: biochemical; conditions: CDK9/CyclinT1; Km ATP; read-out: Enzymatic inhibition, Ki, CDK9 T1
Description: as §1

CDK6/CyclinD3 = CDK6/CyclinD3 (Homo sapiens, UniProt Q00534); assay: ADP Glo kinase assay, CDK6/CyclinD3; format: biochemical; conditions: compound at 1 μM, read-out: Residual enzymatic activity (%) at 1 μM, CDK6 D3
Description: as §1

FLT3-ITD = molecular target: T1, FLT3-ITD (Homo sapiens, UniProt P36888); assay: ADP Glo kinase assay, FLT3-ITD; format: biochemical; conditions: for Ki: Km ATP 100 μM, read-out: Enzymatic inhibition, Ki, FLT3-ITD
T1 sequence (P36888 1-993): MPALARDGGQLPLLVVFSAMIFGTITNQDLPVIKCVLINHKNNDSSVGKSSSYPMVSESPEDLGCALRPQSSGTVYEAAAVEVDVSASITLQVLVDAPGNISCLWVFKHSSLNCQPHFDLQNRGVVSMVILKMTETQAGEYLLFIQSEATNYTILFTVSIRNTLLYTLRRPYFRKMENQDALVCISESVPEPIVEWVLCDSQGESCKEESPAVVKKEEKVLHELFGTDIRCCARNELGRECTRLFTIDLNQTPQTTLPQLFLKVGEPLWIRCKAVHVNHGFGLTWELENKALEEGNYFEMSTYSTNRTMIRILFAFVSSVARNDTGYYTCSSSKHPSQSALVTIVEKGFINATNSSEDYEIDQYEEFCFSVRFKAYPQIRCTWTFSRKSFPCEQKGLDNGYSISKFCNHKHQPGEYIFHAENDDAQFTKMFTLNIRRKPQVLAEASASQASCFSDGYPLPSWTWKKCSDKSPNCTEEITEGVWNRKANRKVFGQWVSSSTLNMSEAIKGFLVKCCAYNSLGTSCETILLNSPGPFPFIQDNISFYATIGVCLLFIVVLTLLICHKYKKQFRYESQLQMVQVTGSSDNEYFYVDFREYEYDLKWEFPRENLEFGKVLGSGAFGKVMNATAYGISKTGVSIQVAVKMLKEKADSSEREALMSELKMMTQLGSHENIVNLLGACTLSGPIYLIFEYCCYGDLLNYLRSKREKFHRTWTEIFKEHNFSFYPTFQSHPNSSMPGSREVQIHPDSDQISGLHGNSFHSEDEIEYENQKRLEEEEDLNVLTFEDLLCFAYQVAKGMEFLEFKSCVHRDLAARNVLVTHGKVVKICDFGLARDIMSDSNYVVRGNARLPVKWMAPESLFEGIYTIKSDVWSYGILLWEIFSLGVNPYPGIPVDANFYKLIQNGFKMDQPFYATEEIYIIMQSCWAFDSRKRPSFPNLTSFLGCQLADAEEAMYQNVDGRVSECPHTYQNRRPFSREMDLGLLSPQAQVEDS
Description: as §1

MV-4-11 = assay: Proliferation assay (resazurin, leukemia cell lines), MV-4-11; format: cell-based; conditions: Homo sapiens, MV4-11, read-out: 72 h Growth inhibition GI50, MV-4-11 cells
From the text: The following compounds were used as comparators.

Sequence of CDK9/CyclinT1 (P50750 whole entry, species assumed): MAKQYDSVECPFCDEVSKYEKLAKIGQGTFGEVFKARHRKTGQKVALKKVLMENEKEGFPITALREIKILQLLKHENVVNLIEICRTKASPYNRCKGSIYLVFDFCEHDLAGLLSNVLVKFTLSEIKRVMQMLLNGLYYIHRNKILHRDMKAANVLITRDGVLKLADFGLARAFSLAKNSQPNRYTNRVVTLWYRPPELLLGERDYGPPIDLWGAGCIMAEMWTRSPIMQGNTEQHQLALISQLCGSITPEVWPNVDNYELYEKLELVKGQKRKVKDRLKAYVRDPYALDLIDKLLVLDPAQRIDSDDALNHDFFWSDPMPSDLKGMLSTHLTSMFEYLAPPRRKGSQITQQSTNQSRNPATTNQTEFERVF
Sequence of CDK9/CyclinT1 (O60563 whole entry partner, species assumed): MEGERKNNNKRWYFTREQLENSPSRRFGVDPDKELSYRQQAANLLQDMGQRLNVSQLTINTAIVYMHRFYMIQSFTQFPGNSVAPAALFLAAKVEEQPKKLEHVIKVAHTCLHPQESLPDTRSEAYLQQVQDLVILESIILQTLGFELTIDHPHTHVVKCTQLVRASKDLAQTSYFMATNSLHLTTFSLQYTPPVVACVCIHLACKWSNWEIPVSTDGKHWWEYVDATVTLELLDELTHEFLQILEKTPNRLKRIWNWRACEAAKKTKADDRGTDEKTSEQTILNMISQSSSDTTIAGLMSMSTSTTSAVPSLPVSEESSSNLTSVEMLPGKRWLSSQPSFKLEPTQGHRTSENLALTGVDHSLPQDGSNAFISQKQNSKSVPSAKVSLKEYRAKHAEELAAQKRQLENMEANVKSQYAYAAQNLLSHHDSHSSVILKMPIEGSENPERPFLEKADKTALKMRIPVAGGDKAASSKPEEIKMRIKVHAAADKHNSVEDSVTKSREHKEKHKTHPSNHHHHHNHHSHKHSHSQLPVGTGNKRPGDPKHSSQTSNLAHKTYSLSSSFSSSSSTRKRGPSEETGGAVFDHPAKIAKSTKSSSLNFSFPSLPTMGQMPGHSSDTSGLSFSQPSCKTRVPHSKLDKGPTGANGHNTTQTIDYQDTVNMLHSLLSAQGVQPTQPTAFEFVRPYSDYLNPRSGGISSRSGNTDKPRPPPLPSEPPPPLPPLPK
Sequence of CDK7/CyclinH/Mat1 (P50613 whole entry, species assumed): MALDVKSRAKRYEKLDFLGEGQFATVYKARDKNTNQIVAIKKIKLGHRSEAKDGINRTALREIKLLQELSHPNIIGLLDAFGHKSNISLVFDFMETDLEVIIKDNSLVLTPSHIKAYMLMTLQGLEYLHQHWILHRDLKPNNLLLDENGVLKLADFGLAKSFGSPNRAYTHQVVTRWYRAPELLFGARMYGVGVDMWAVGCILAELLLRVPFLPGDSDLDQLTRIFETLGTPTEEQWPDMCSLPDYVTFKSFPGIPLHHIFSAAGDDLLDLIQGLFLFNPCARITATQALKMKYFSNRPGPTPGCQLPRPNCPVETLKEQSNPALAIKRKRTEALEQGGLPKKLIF
Sequence of CDK7/CyclinH/Mat1 (P51946 whole entry partner, species assumed): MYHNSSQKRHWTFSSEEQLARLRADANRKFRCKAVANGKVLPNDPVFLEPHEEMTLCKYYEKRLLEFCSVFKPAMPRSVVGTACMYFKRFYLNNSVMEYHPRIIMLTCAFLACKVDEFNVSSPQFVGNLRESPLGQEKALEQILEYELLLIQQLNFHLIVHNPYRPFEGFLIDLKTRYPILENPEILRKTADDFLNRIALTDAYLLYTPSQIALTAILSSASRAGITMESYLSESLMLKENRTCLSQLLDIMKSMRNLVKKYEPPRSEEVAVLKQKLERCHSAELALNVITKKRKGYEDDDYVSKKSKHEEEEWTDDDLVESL
Sequence of CDK7/CyclinH/Mat1 (P51948 whole entry partner, species assumed): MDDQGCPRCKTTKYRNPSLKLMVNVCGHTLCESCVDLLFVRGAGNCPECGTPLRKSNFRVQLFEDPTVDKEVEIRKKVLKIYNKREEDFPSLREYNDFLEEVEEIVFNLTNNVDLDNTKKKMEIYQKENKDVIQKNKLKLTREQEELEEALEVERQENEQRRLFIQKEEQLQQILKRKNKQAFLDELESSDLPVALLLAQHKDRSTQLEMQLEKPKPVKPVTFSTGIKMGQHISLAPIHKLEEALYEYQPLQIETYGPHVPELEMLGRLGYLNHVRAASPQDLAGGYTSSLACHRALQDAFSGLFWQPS
Sequence of CDK1/CyclinB (P06493 whole entry, species assumed): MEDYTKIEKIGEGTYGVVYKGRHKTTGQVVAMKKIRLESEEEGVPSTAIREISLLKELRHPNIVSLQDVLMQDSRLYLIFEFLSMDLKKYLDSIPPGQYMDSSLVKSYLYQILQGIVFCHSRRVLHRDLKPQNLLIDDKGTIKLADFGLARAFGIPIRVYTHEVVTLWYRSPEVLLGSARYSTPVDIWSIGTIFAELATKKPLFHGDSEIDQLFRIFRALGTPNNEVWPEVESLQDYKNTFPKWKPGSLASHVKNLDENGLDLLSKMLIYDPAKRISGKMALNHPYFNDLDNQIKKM
Sequence of CDK1/CyclinB (P14635 whole entry partner, species assumed): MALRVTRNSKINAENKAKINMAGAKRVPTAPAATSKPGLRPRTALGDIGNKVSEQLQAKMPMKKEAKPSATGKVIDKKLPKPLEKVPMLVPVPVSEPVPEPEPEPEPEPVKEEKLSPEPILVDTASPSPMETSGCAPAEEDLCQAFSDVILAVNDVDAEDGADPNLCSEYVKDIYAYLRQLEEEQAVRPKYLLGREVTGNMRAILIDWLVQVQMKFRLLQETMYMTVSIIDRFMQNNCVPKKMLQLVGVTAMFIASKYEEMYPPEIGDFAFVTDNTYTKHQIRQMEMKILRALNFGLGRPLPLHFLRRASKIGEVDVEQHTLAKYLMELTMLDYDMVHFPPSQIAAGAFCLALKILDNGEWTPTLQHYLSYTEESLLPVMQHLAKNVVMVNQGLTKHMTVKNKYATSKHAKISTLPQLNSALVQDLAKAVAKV
Sequence of CDK6/CyclinD3 (Q00534 whole entry, species assumed): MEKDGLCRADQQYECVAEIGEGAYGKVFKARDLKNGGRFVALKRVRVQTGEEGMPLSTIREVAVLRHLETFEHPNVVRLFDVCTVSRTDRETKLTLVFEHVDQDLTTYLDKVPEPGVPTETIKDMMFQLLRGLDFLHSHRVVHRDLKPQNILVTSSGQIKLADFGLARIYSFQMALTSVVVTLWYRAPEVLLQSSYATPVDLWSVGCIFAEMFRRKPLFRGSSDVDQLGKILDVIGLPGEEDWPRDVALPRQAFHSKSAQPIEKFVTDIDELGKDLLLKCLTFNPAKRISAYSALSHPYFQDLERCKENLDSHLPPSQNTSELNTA
Sequence of CDK6/CyclinD3 (P30281 whole entry partner, species assumed): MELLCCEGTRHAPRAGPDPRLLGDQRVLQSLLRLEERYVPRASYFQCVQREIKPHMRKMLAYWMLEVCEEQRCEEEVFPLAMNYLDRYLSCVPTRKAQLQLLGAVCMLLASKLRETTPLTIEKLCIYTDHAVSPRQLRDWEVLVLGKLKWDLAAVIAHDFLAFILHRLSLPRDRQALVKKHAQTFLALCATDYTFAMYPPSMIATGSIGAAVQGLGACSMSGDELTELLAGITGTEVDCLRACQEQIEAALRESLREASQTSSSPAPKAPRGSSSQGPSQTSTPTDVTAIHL

SMILES | remaining activity at 1 µM (CDK7/CyclinH/Mat1) | remaining activity at 1 µM (CDK2/CyclinA2) | remaining activity at 1 µM (CDK1/CyclinB) | Ki (CDK9/CyclinT1) | remaining activity at 1 µM (CDK6/CyclinD3) | Ki (FLT3-ITD) | GI50 (MV-4-11) | Ki (CDK2/CyclinA2) | Residual enzymatic activity (%) at 1 μM, FLT3-ITD (FLT3-ITD; compound at 1 μM) | Ki (CDK1/CyclinB; Km ATP, read-out: Enzymatic inhibition, Ki, CDK1 B)
CN1CCN(c2ccc(Nc3nccc(-c4cnc5ccc(-c6ccccc6)cn45)n3)nc2)CC1 [Comparator compound A, N-(5-(4-methylpiperazin-1-yl)pyridin-2-yl)-4-(6-phenylimidazo[1,2-a]pyridin-3-yl)pyrimidin-2-amine, reference compound] | 66% | 86% | 87% | 83 nM | – | – | – | – | – | –
CS(=O)(=O)N1CCN(c2ccc(Nc3nccc(-c4cnc5ccc(-c6cc7ccccc7o6)cn45)n3)cn2)CC1 [Compound 52, 4-(6-(Benzofuran-2-yl)imidazo[1,2-a]pyridin-3-yl)-N-(6-(4-(methylsulfonyl)piperazin-1-yl)pyridin-3-yl)pyrimidin-2-amine] | 99% | 97% | 62% | > 500 nM | 100% | 57 nM | 23 nM | – | – | –
CC(C)N1CCN(c2ccc(Nc3nccc(-c4cnc5ccc(-c6cncnc6)cn45)n3)cn2)CC1 [Compound 53, N-(6-(4-Isopropylpiperazin-1-yl)pyridin-3-yl)-4-(6-(pyrimidin-5-yl)imidazo[1,2-a]pyridin-3-yl)pyrimidin-2-amine] | 56% | 75% | 71% | 92 nM | 66% | 71 nM | 46 nM | – | – | –
CC(C)N1CCN(c2ccc(Nc3nccc(-c4cnc5ccc(-c6ccc(F)nc6)cn45)n3)cn2)CC1 [Compound 55, 4-(6-(6-Fluoropyridin-3-yl)imidazo[1,2-a]pyridin-3-yl)-N-(6-(4-isopropylpiperazin-1-yl)-pyridin-3-yl)pyrimidin-2-amine] | 38% | 62% | 50% | 36 nM | 55% | 28 nM | 116 nM | – | – | –
CS(=O)(=O)N1CCN(c2ccc(Nc3nccc(-c4cnc5ccc(-c6ccc(F)nc6)cn45)n3)cn2)CC1 [Compound 56, 4-(6-(6-Fluoropyridin-3-yl)imidazo[1,2-a]pyridin-3-yl)-N-(6-(4-(methylsulfonyl)piperazin-1-yl)pyridin-3-yl)pyrimidin-2-amine] | 94% | 36% | 78% | 380 nM | 96% | 84 nM | 23 nM | – | – | –
Brc1ccc2ncc(-c3ccnc(Nc4ccc(NC5CCOCC5)nc4)n3)n2c1 [Compound 57, N^5-(4-(6-Bromoimidazo[1,2-a]pyridin-3-yl)pyrimidin-2-yl)-N^2-(tetrahydro-2H-pyran-4-yl)pyridine-2,5-diamine] | 88% | – | 57% | 103 nM | 93% | 40 nM | 30 nM | 56 nM | – | –
CCS(=O)(=O)N1CCN(c2ccc(Nc3nccc(-c4cnc5ccc(-c6ccccc6)cn45)n3)cn2)CC1 [Compound 60, N-(6-(4-(Ethylsulfonyl)piperazin-1-yl)pyridin-3-yl)-4-(6-phenylimidazo[1,2-a]pyridin-3-yl)pyrimidin-2-amine] | 100% | 91% | 61% | 509 nM | 100% | 142 nM | 20 nM | – | – | –
CCS(=O)(=O)N1CCN(c2ccc(Nc3nccc(-c4cnc5ccc(-c6ccc(F)nc6)cn45)n3)cn2)CC1 [Compound 61, N-(6-(4-(Ethylsulfonyl)piperazin-1-yl)pyridin-3-yl)-4-(6-(6-fluoropyridin-3-yl)imidazo[1,2-a]pyridin-3-yl)pyrimidin-2-amine] | 57% | 71% | 38% | 428 nM | 72% | 149 nM | 20 nM | – | – | –
O=C(c1ccco1)N1CCN(c2ccc(Nc3nccc(-c4cnc5ccc(Br)cn45)n3)cn2)CC1 [Compound 62, (4-(5-((4-(6-Bromoimidazo[1,2-a]pyridin-3-yl)pyrimidin-2-yl)amino)pyridin-2-yl)piperazin-1-yl)(furan-2-yl)methanone] | 60% | 57% | 39% | 541 nM | 76% | 188 nM | 52 nM | – | – | –
O=C(c1ccco1)N1CCN(c2ccc(Nc3nccc(-c4cnc5ccc(-c6ccccc6)cn45)n3)cn2)CC1 [Compound 63, Furan-2-yl(4-(5-((4-(6-phenylimidazo[1,2-a]pyridin-3-yl)pyrimidin-2-yl)amino)pyridin-2-yl)piperazin-1-yl)methanone] | 93% | 49% | 26% | 242 nM | 100% | 82 nM | 25 nM | – | – | –
COc1cc(F)cc(-c2ccc3ncc(-c4ccnc(Nc5ccc(N6CCN(C)CC6)nc5)n4)n3c2)c1 [Compound 64, 4-(6-(3-Fluoro-5-methoxyphenyl)imidazo[1,2-a]pyridin-3-yl)-N-(6-(4-methylpiperazin-1-yl)pyridin-3-yl)pyrimidin-2-amine] | 38% | 90% | 57% | 26 nM | 66% | 6 nM | 2 nM | – | – | –
CN(C)c1ccc(Nc2nccc(-c3cnc4ccc(-c5ccccc5)cn34)n2)cn1 [Compound 66, N^2,N^2-Dimethyl-N^5-(4-(6-phenylimidazo[1,2-a]pyridin-3-yl)pyrimidin-2-yl)pyridine-2,5-diamine] | 64% | 73% | 76% | 468 nM | 79% | 220 nM | 17 nM | – | – | –
CN(C)c1ccc(Nc2nccc(-c3cnc4ccc(C5=CCN(C(=O)OC(C)(C)C)CC5)cn34)n2)cn1 [Compound 67, Tert-butyl 4-(3-(2-((6-(dimethylamino)pyridin-3-yl)amino)pyrimidin-4-yl)imidazo[1,2-a]pyridin-6-yl)-3,6-dihydropyridine-1(2H)-carboxylate] | 68% | 93% | 67% | 1630 nM | 78% | > 500 nM | 362 nM | – | – | –
CN(C)c1ccc(Nc2nccc(-c3cnc4ccc(-c5ccc(F)nc5)cn34)n2)cn1 [Compound 68, N^5-(4-(6-(6-Fluoropyridin-3-yl)imidazo[1,2-a]pyridin-3-yl)pyrimidin-2-yl)-N^2,N^2-dimethylpyridine-2,5-diamine] | 71% | 61% | 37% | 174 nM | 81% | 62 nM | 13 nM | – | – | –
CN(C)c1ccc(Nc2nccc(-c3cnc4ccc(C5=CCNCC5)cn34)n2)cn1 [Compound 69, N^2,N^2-Dimethyl-N^5-(4-(6-(1,2,3,6-tetrahydropyridin-4-yl)imidazo[1,2-a]pyridin-3-yl)pyrimidin-2-yl)pyridine-2,5-diamine] | 65% | – | – | 16 nM | 81% | – | 152 nM | 82 nM | 30% | 116 nM
